Measured values as given in patent US20230065953A1, “NOVEL HETEROARYL-TRIAZOLE COMPOUNDS AS PESTICIDES” (Bayer Aktiengesellschaft, priority 2019, published 2023).

Assays:
Format in all cases: in vivo
[1] = system: Rhipicephalus microplus larvae (strain Parkhurst, resistant against synthetic pyrethroids); assay: Rhipicephalus (Boophilus) microplus in-vitro contact test, larval cattle tick; settings: 5 μg/cm^2 (=500 g/ha), after 48 hours, read-out: efficacy (larvae dead or moribund)
Summary of the method: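 Larvae exposed by contact to a dried acetone film on glass; a 900 ppm solution yields 5 μg/cm^2. Scoring after 48 h at 27° C. counts dead plus moribund larvae as efficacy.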

[2] = system: adult engorged female ticks (Rhipicephalus microplus); assay: Rhipicephalus (Boophilus) microplus injection test; settings: 168 h, 4 μg/animal, egg deposition after 7 days, read-out: efficacy (infertile eggs)
Summary of the method: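 Five adult engorged female ticks each injected into the abdomen with 1 μL of compound in DMSO, then kept in a climate chamber. Fertile egg deposition assessed after 7 days, with unclear eggs held until hatching around 42 days; efficacy 100% means all eggs infertile, 0% all fertile.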

[3] = system: adult cat fleas (Ctenocephalides felis); assay: Ctenocephalides felis in-vitro contact test, adult cat flea; settings: 5 μg/cm^2 (=500 g/ha), after 48 hours
Summary of the method: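 Acetone solutions of compound were coated onto inner walls of glass tubes (900 ppm giving 5 μg/cm^2) and dried; 5-10 adult C. felis were then held 48 h at room temperature. Efficacy = % fleas dead or moribund, judged by inability to escape a 45-50° C heating plate within 5 min.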

[4] = system: adult unfed cat fleas (Ctenocephalides felis); assay: Ctenocephalides felis oral test; settings: 48 h
Summary of the method: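 About 20 adult unfed fleas fed through parafilm on cattle blood containing compound (DMSO stock diluted in blood), blood held at 37 °C and fleas at room temperature. Mortality (%) scored after 2 days.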

[5] = system: adult brown dog ticks (Rhipicephalus sanguineus); assay: Rhipicephalus sanguineus in-vitro contact test with adult brown dog ticks; settings: 5 μg/cm^2 (=500 g/ha), after 48 hours, read-out: efficacy (ticks dead or moribund)
Method: Rhipicephalus sanguineus—In-Vitro Contact Tests with Adult Brown Dog Ticks
9 mg compound is solved in 1 mL acetone and diluted with acetone to the desired concentration. 250 μL of the test solution is filled in 25 mL glass test tubes and homogeneously distributed on the inner walls by rotation and tilting on a shaking device (2 h at 30 rpm). With a compound concentration of 900 ppm, an inner surface of 44.7 cm^2 and a homogeneous distribution, a dose of 5 μg/cm^2 is achieved.
After the solvent has evaporated, each test tube is filled with 5-10 adult brown dog ticks (Rhipicephalus sanguineus), closed with a perforated lid and incubated in a lying position at room temperature and relative humidity. After 48 hours efficacy is determined. The ticks are patted on the ground of the tubes and are incubated on a heating plate at 45-50° C. for at most 5 minutes. Immotile or uncoordinated moving ticks, which are not able to escape the heat by climbing upwards, are marked as dead or moribund.
An efficacy of 100% means all ticks are dead or moribund; 0% means no ticks are dead or moribund.

[6] = system: larvae of the banded cucumber beetle (Diabrotica balteata); assay: Diabrotica balteata spray test; settings: 168 h, 100 g/ha (=32 μg/well), wheat seeds, after 7 days, read-out: efficacy (seedling growth)
Summary of the method: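 Wheat seeds germinated 1 day on agar were sprayed with compound in acetone/dimethylformamide with alkylarylpolyglycol ether emulsifier, diluted in emulsifier-containing water. Each unit then received 10-20 larvae, and % efficacy was scored after 7 days.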

[7] = system: brown planthopper (Nilaparvata lugens); assay: Nilaparvata lugens spray test; settings: 96 h, rice plants, after 4 days
Method: Nilaparvata lugens—Spray Test • Solvent: 78.0 parts by weight of acetone • 1.5 parts by weight of dimethylformamide • Emulsifier: alkylarylpolyglycol ether
To produce a suitable preparation of active compound, 1 part by weight of active compound is mixed with the stated amount of solvents and is diluted with water, containing an emulsifier concentration of 1000 ppm, to the desired concentration. Further test concentrations are prepared by dilution with emulsifier containing water.
Rice plants (Oryza sativa) are sprayed with a preparation of the active ingredient of the desired concentration and the plants are infested with the brown planthopper (Nilaparvata lugens).
After 4 days mortality in % is determined. 100% means all planthoppers have been killed and 0% means none of the planthoppers have been killed.

[8] = system: fall armyworm larvae (Spodoptera frugiperda); assay: Spodoptera frugiperda spray test (maize leaf sections); settings: 168 h
Summary of the method: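 Maize leaf sections sprayed with compound in acetone/dimethylformamide, diluted in water with 1000 ppm alkylarylpolyglycol ether emulsifier. Dried sections infested with fall armyworm larvae. Mortality (%) scored after 7 days; 100% = all caterpillars killed.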

[9] = system: green peach aphid (Myzus persicae); assay: Myzus persicae oral test; settings: 120 h
Summary of the method: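 Compound was dissolved in acetone, diluted with water and mixed into IPL41 insect medium with sugar under a parafilm seal. A mixed aphid population fed through the parafilm, and mortality (%) was scored after 5 days.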

[10] = system: green peach aphid (Myzus persicae); assay: Myzus persicae spray test; settings: foliar, 120 h, Chinese cabbage leaf disks, after 5 days
Summary of the method: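 Chinese cabbage leaf discs infested with all instars of the aphid were sprayed with compound prepared in acetone/DMF and diluted in water containing 1000 ppm emulsifier. Mortality (%) was scored after 5 days, 100% meaning all aphids killed and 0% none.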

[11] = system: adult mosquitoes Aedes aegypti strain MONHEIM; assay: Aedes aegypti test (AEDSAE surface treatment & contact assay); settings: 24 hours after contact, read-out: efficacy (mortality); for mortality at 20 mg/m2: surface concentration 20 mg/m^2, 30 min exposure
Method: Aedes aegypti test (AEDSAE surface treatment & contact assay) • Solvent: Aceton+2000 ppm rapeseed oil methyl ester (RME)
In order to produce a sufficient, active ingredient containing solution it is necessary to solve the test compound in the solvent-mix (acetone at 2 mg/ml/RME 2000 ppm). This solution is pipetted onto a glazed tile and after evaporation of the acetone, adult mosquitoes of the species Aedes aegypti strain MONHEIM are placed onto the dried surface. The exposure time is 30 minutes.
(§1) Mortality in percent (%) is determined 24 hours after contact of the insects to the treated surface. 100% mortality means that all tested insects are dead, whereas 0% means that no insect died.

[12] = system: adult flies Musca domestica strain WHO-N; assay: Musca domestica test (MUSCDO surface treatment & contact assay); settings: 24 hours after contact, read-out: efficacy (mortality); for mortality at 4 mg/m2: surface concentration 4 mg/m^2, 30 min exposure; for mortality at 20 mg/m2: surface concentration 20 mg/m^2, 30 min exposure
Method: Musca domestica Test (MUSCDO Surface Treatment & Contact Assay) • Solvent: Aceton+2000 ppm rapeseed oil methyl ester (RME)
In order to produce a sufficient, active ingredient containing solution it is necessary to solve the test compound in the solvent-mix (acetone at 2 mg/ml/RME 2000 ppm). This solution is pipetted onto a glazed tile and after evaporation of the acetone, adult flies of the species Musca domestica strain WHO-N are placed onto the dried surface. The exposure time is 30 minutes.
as §1

[13] = system: larvae of the southern green stink bug (Nezara viridula); assay: Nezara viridula spray test; settings: in Hordeum vulgare, 96 h
Summary of the method: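 Barley plants sprayed with compound in acetone/dimethylformamide, diluted in water with 1000 ppm alkylarylpolyglycol ether emulsifier, then infested with Nezara viridula larvae. Percent mortality read after 4 days (100% = all killed, 0% = none).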

Row | Compound | pest or weed control at 5 µg/cm2 [1] | pest or weed control at 0.004 mg [2] | efficacy (fleas dead or moribund) [3] | mortality at 100 ppm [4] | pest or weed control at 5 µg/cm2, 500 g/ha [5] | pest or weed control at 32 µg/disc, 100 g/ha [6] | mortality at 100 g/ha ([7]; 100 g/ha) | mortality at 100 g/ha [8] | mortality at 4 ppm [9] | mortality at 100 g/ha [10] | mortality at 4 mg/m2 ([11]; surface concentration 4 mg/m^2, 30 min exposure) | mortality at 20 mg/m2 [11] | mortality at 4 mg/m2 [12] | mortality at 20 mg/m2 [12] | mortality at 100 g/ha [13] | mortality at 500 g/ha [13] | mortality at 500 g/ha [7]
1 | Cc1nc([C@H](C)NC(=O)c2cc(C(F)(F)F)cc(C(F)(F)F)c2)n(-c2ncc(C(=O)N(C)C(C)C)s2)n1 [I-10] | 100% | 100% | 90% | 100% | 100% | 100% | 90% | 100% | – | – | – | – | – | – | – | – | –
2 | Cc1nc([C@H](C)NC(=O)c2cc(Cl)cc(C(F)F)c2)n(-c2ncc(C#N)s2)n1 [I-18] | 100% | 100% | – | 100% | 100% | 100% | – | 100% | 100% | 100% | 80 to 100% | 80 to 100% | 90 to 100% | 80 to 100% | – | – | –
3 | C[C@H](NC(=O)c1cc(C(F)(F)F)cc(S(C)(=O)=O)c1)c1ncnn1-c1ncc(C(=O)N(C)C)s1 [I-65] | – | – | 100% | – | – | 100% | – | 100% | – | 100% | – | – | – | – | 100% | 100% | 90%
4 | C[C@H](NC(=O)c1cc(OC(F)(F)F)cc(C2CC2)c1)c1ncnn1-c1ncc(C(=O)N(C)C)s1 [I-89] | 100% | – | 100% | – | 80% | 100% | – | 100% | – | 100% | – | 80 to 100% | – | 80 to 100% | – | 100% | 100%
5 | Cc1nc([C@H](C)NC(=O)c2cc(OC(F)(F)F)cc(C3CC3)c2)n(-c2ncc(C#N)s2)n1 [I-91] | 100% | – | – | – | 100% | 100% | – | 100% | – | 90% | – | 80 to 100% | 90 to 100% | 80 to 100% | – | 100% | 100%
6 | CNC(=O)c1cnc(-n2nc(C)nc2[C@H](C)NC(=O)c2cc(C(F)(F)F)cc(C(F)(F)F)c2)s1 [I-102] | 100% | – | 100% | – | – | 100% | – | 100% | – | 90% | – | – | – | – | – | 100% | 100%
7 | CNC(=O)c1cnc(-n2ncnc2[C@H](C)NC(=O)c2cc(OC(F)(F)F)cc(S(C)(=O)=O)c2)s1 [I-113] | – | – | – | – | – | 100% | – | – | – | 100% | – | – | – | – | 100% | 100% | 100%
8 | C[C@H](NC(=O)c1cc(OC(F)F)cc(OC(F)F)c1)c1ncnn1-c1ncc(C(=O)N(C)C)s1 [I-119] | – | – | – | – | – | 100% | – | 100% | – | 90% | – | – | – | – | 100% | 100% | 100%
9 | C[C@H](NC(=O)c1cc(OC(F)(F)F)cc(S(C)(=O)=O)c1)c1ncnn1-c1ncc(C(=O)N(C)C)s1 [I-120] | – | – | – | – | – | – | – | 100% | – | 90% | – | – | – | – | 100% | 100% | 100%
10 | Cc1nc([C@H](C)NC(=O)c2cc(OC(F)(F)F)cc(C3CC3)c2)n(-c2ncc(C(=O)N(C)CC3CC3)s2)n1 [I-128] | – | – | – | – | – | 100% | – | 100% | – | 90% | – | – | – | – | 90% | 100% | 100%
11 | CCN(C)C(=O)c1cnc(-n2nc(C)nc2[C@H](C)NC(=O)c2cc(OC(F)(F)F)cc(C3CC3)c2)s1 [I-129] | – | – | – | – | – | 100% | – | 100% | – | 100% | – | – | – | – | – | – | 100%
12 | C[C@H](NC(=O)c1cc(S(=O)(=O)C(F)(F)F)cc(S(=O)(=O)C(F)(F)F)c1)c1ncnn1-c1ncc(C#N)s1 [I-138] | – | – | – | – | – | 100% | – | 100% | – | – | – | – | – | – | – | – | 100%
13 | Cc1nc([C@H](C)NC(=O)c2cc(C(F)(F)F)cc(S(C)(=O)=O)c2)n(-c2ncc(C#N)s2)n1 [I-165] | – | – | – | – | – | 100% | – | 100% | – | – | – | – | – | – | – | 100% | 100%
